Reference: patent US5389627A, “Cephem compounds” (priority 1993, dated 1995)
In brackets after ≈: the same amount, converted by molar mass.

Assays:
Assay in all cases: In vitro antibacterial activity, minimum inhibitory concentration
Type in all cases: cell-based
P.aeruginosa ATCC27853 = settings: Pseudomonas aeruginosa; P.aeruginosa ATCC27853; read-out: Minimum Inhibitory Concentration (MIC)
Text: (§1) As reference compounds, Cefotaxime (CTX), Ceftazidime (CAZ) and Cefpirome (CPR) were employed.

K.oxytoca C4022 = settings: Klebsiella oxytoca; K.oxytoca C4022; read-out: Minimum Inhibitory Concentration (MIC)
Text: as §1

S.aureus ATCC29213 = settings: Staphylococcus aureus; S.aureus ATCC29213; read-out: Minimum Inhibitory Concentration (MIC)
Text: as §1

MRSA C2208 = settings: Staphylococcus aureus; MRSA C2208; read-out: Minimum Inhibitory Concentration (MIC)
Text: as §1

S.marcescens ATCC27117 = settings: Serratia marcescens; S.marcescens ATCC27117; read-out: Minimum Inhibitory Concentration (MIC)
Text: as §1

E.coli C4002 = settings: Escherichia coli; E.coli C4002; read-out: Minimum Inhibitory Concentration (MIC)
Text: as §1

S.epidermidis ATCC12228 = settings: Staphylococcus epidermidis; S.epidermidis ATCC12228; read-out: Minimum Inhibitory Concentration (MIC)
Text: as §1

P.mirabilis ATCC25933 = settings: Proteus mirabilis; P.mirabilis ATCC25933; read-out: Minimum Inhibitory Concentration (MIC)
Text: as §1

P.aeruginosa C4070 = settings: Pseudomonas aeruginosa; P.aeruginosa C4070; read-out: Minimum Inhibitory Concentration (MIC)
Text: as §1

E.coli ATCC10536 = settings: Escherichia coli; E.coli ATCC10536; read-out: Minimum Inhibitory Concentration (MIC)
Text: as §1

S.pyogenes ATCC 8668 = settings: Streptococcus pyogenes, ATCC8668; S.pyogenes ATCC 8668; read-out: Minimum Inhibitory Concentration (MIC)
Text: as §1

S.Faecalis ATCC29212 = settings: Enterococcus faecalis
Text: as §1

E.coli ATCC25922 = settings: Escherichia coli; E.coli ATCC25922; read-out: Minimum Inhibitory Concentration (MIC)
Text: as §1

P.aeruginosa ATCC10145 = settings: Pseudomonas aeruginosa; P.aeruginosa ATCC10145; read-out: Minimum Inhibitory Concentration (MIC)
Text: as §1

E.cloacae C4008 = settings: Enterobacter cloacae; E.cloacae C4008; read-out: Minimum Inhibitory Concentration (MIC)
Text: as §1

P.rettgeri ATCC9919 = settings: Providencia rettgeri; P.rettgeri ATCC9919; read-out: Minimum Inhibitory Concentration (MIC)
Text: as §1

E.cloacae C4009 = settings: Enterobacter cloacae; E.cloacae C4009; read-out: Minimum Inhibitory Concentration (MIC)
Text: as §1

S.aureus Smith = settings: Staphylococcus aureus; S.aureus Smith; read-out: Minimum Inhibitory Concentration (MIC)
Text: as §1

S.aureus C4036 = settings: Staphylococcus aureus; S.aureus C4036; read-out: Minimum Inhibitory Concentration (MIC)
Text: as §1

S.marcescens C1052 = settings: Serratia marcescens; S.marcescens C1052; read-out: Minimum Inhibitory Concentration (MIC)
Text: as §1

K.pneumoniae C1040 = settings: Klebsiella pneumoniae; K.pneumoniae C1040; read-out: Minimum Inhibitory Concentration (MIC)
Text: as §1

S.pyogenes C4003 = settings: Streptococcus pyogenes; S.pyogenes C4003; read-out: Minimum Inhibitory Concentration (MIC)
Text: as §1

K.pneumoniae ATCC10031 = settings: Klebsiella pneumoniae; K.pneumoniae ATCC10031; read-out: Minimum Inhibitory Concentration (MIC)
Text: as §1

S.typhimurium C4045 = settings: Salmonella enterica; S.typhimurium C4045; read-out: Minimum Inhibitory Concentration (MIC)
Text: as §1

P.aeruginosa C2027 = settings: Pseudomonas aeruginosa; P.aeruginosa C2027; read-out: Minimum Inhibitory Concentration (MIC)
Text: as §1

MIC (P.aeruginosa ATCC27853) [µg/mL]	MIC (K.oxytoca C4022) [µg/mL]	MIC (S.aureus ATCC29213) [µg/mL]	MIC (MRSA C2208) [µg/mL]	MIC (S.marcescens ATCC27117) [µg/mL]	MIC (E.coli C4002) [µg/mL]	MIC (S.epidermidis ATCC12228) [µg/mL]	MIC (P.mirabilis ATCC25933) [µg/mL]	MIC (P.aeruginosa C4070) [µg/mL]	MIC (E.coli ATCC10536) [µg/mL]	MIC (S.pyogenes ATCC 8668) [µg/mL]	MIC (S.Faecalis ATCC29212) [µg/mL]	MIC (E.coli ATCC25922) [µg/mL]	MIC (P.aeruginosa ATCC10145) [µg/mL]	MIC (E.cloacae C4008) [µg/mL]	MIC (P.rettgeri ATCC9919) [µg/mL]	MIC (E.cloacae C4009) [µg/mL]	MIC (S.aureus Smith) [µg/mL]	MIC (S.aureus C4036) [µg/mL]	MIC (S.marcescens C1052) [µg/mL]	SMILES	further results
3.13 (≈ 5.74 µM)	1.56 (≈ 2.86 µM)	3.13 (≈ 5.74 µM)	> 100	0.025 (≈ 0.0458 µM)	0.025 (≈ 0.0458 µM)	1.56 (≈ 2.86 µM)	0.025 (≈ 0.0458 µM)	3.13 (≈ 5.74 µM)	0.007 (≈ 0.0128 µM)	0.007 (≈ 0.0128 µM)	> 100	0.025 (≈ 0.0458 µM)	1.56 (≈ 2.86 µM)	0.013 (≈ 0.0238 µM)	0.007 (≈ 0.0128 µM)	0.013 (≈ 0.0238 µM)	3.13 (≈ 5.74 µM)	3.13 (≈ 5.74 µM)	0.05 (≈ 0.0916 µM)	CO/N=C(\C(=O)N[C@@H]1C(=O)N2C(C(=O)[O-])=C(C[n+]3ccc4c(c3)[nH]c(=O)n4C)CS[C@H]12)c1nsc(N)n1 [Ex. 6, 7-β-[(Z)-2-(5-Amino-1,2,4-thiadiazol-3-yl)-2-methoxyiminoacetamido]-3-[1-methyl-2-(3H)-oxo-imidazo[4,5-c]pyridiniummethyl]-3-cephem-4-carboxylate]	MIC (K.pneumoniae C1040): 0.007 µg/mL (≈ 0.0128 µM); MIC (S.pyogenes C4003): 0.004 µg/mL (≈ 0.00733 µM); MIC (K.pneumoniae ATCC10031): 0.007 µg/mL (≈ 0.0128 µM); MIC (S.typhimurium C4045): 0.025 µg/mL (≈ 0.0458 µM); MIC (P.aeruginosa C2027): 1.56 µg/mL (≈ 2.86 µM)
50 (≈ 96.6 µM)	1.56 (≈ 3.01 µM)	0.78 (≈ 1.51 µM)	> 100	0.1 (≈ 0.193 µM)	6.25 (≈ 12.1 µM)	3.13 (≈ 6.05 µM)	0.1 (≈ 0.193 µM)	50 (≈ 96.6 µM)	0.025 (≈ 0.0483 µM)	0.1 (≈ 0.193 µM)	> 100	0.05 (≈ 0.0966 µM)	12.5 (≈ 24.2 µM)	0.1 (≈ 0.193 µM)	0.5 (≈ 0.966 µM)	0.1 (≈ 0.193 µM)	6.25 (≈ 12.1 µM)	1.56 (≈ 3.01 µM)	0.2 (≈ 0.386 µM)	Nc1nc(/C(=N/O)C(=O)N[C@@H]2C(=O)N3C(C(=O)[O-])=C(C[n+]4ccc5[nH]c(=O)[nH]c5c4)CS[C@H]23)ns1 [Ex. 7, 7-β-[(Z)-2-(5-Amino-1,2,4-thiadiazol-3-yl)-2-hydroxyiminoacetamido]-3-[2-(1H, 3H)-oxo-imidazo[4,5-c]pyridiniummethyl]-3-cephem-4-carboxylate]	MIC (K.pneumoniae C1040): 1.56 µg/mL (≈ 3.01 µM); MIC (S.pyogenes C4003): 0.2 µg/mL (≈ 0.386 µM); MIC (K.pneumoniae ATCC10031): 0.025 µg/mL (≈ 0.0483 µM); MIC (S.typhimurium C4045): 0.1 µg/mL (≈ 0.193 µM); MIC (P.aeruginosa C2027): 6.25 µg/mL (≈ 12.1 µM)
25 (≈ 45 µM)	12.5 (≈ 22.5 µM)	3.13 (≈ 5.63 µM)	> 100	0.05 (≈ 0.09 µM)	0.1 (≈ 0.18 µM)	1.56 (≈ 2.81 µM)	0.025 (≈ 0.045 µM)	12.5 (≈ 22.5 µM)	0.05 (≈ 0.09 µM)	0.007 (≈ 0.0126 µM)	> 100	0.1 (≈ 0.18 µM)	12.5 (≈ 22.5 µM)	0.05 (≈ 0.09 µM)	0.013 (≈ 0.0234 µM)	0.05 (≈ 0.09 µM)	3.13 (≈ 5.63 µM)	3.13 (≈ 5.63 µM)	0.05 (≈ 0.09 µM)	CO/N=C(\C(=O)N[C@@H]1C(=O)N2C(C(=O)[O-])=C(C[n+]3ccc4[nH]c(=NC#N)[nH]c4c3)CS[C@H]12)c1nsc(N)n1 [Ex. 4, 7-β-[(Z)-2-(5-Amino-1,2,4-thiadiazol-3-yl)-2-methoxyiminoacetamido]-3-[2-(1H,3H)-cyanoimine-imidazo[4,5-c]pyridiniummethyl]-3-cephem-4-carboxylate]	MIC (K.pneumoniae C1040): 0.025 µg/mL (≈ 0.045 µM); MIC (S.pyogenes C4003): 0.007 µg/mL (≈ 0.0126 µM); MIC (K.pneumoniae ATCC10031): 0.013 µg/mL (≈ 0.0234 µM); MIC (S.typhimurium C4045): 0.05 µg/mL (≈ 0.09 µM); MIC (P.aeruginosa C2027): 6.25 µg/mL (≈ 11.2 µM)
